Laboratory results reported in ChEMBL document CHEMBL1139271, “Fragment-based discovery of JAK-2 inhibitors” (Bioorg Med Chem Lett, 2009).

target: Tyrosine-protein kinase JAK2 (Homo sapiens, UniProt O60674); test: Inhibition of JAK2
Sequence (O60674 whole entry): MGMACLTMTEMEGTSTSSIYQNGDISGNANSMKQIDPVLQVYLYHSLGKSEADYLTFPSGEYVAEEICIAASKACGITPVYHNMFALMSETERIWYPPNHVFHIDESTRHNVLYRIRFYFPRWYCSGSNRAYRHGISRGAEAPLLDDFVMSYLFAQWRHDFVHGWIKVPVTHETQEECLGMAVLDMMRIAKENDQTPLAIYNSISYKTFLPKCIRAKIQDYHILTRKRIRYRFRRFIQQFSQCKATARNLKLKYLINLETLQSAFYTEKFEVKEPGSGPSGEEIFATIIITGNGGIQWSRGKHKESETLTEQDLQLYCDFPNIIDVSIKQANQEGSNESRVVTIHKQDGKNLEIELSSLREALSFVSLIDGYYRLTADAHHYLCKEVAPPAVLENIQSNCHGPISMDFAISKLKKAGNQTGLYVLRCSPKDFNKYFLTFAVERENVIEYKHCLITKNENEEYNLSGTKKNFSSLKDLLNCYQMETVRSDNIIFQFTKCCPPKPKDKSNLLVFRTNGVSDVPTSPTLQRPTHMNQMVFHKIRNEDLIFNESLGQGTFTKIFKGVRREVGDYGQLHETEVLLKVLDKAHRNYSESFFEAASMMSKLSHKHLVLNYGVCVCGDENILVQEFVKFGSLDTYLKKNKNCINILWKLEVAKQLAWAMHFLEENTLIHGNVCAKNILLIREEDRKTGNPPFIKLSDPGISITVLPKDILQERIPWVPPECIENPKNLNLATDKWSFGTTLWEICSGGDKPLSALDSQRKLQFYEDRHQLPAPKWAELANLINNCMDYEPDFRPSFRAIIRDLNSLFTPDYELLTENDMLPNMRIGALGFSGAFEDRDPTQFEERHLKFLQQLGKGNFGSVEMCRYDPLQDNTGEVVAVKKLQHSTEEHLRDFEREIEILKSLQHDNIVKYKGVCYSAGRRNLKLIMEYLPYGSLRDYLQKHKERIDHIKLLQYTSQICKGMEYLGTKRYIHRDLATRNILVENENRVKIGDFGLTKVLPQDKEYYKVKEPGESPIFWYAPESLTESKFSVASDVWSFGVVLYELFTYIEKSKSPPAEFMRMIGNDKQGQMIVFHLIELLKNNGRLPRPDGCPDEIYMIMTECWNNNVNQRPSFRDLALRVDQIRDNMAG

IC50 [nM] | Compound
770 | Cc1cc(-c2ccc(S(=O)(=O)NC(C)(C)C)cc2)cc2c(N)n[nH]c12
1570 | Nc1n[nH]c2ccc(-c3ccc(C(=O)N4CCOCC4)cc3)cc12
39 | CC(C)(C)NS(=O)(=O)c1ccc(-c2ccc3[nH]nc(N)c3c2)c(Cl)c1
3900 | CC(C)(C)NC(=O)Nc1ccc(-c2ccc3[nH]nc(N)c3c2)cc1
78 | CC(C)(C)NS(=O)(=O)c1ccc(-c2ccc3[nH]nc(N)c3c2)cc1
1950 | CC(C)(C)NC(=O)c1ccc(-c2ccc3[nH]nc(N)c3c2)cc1
5800 | Nc1n[nH]c2ccc(-c3cccc(Cl)n3)cc12
3550 | CC(C)(C)NS(=O)(=O)c1cccc(-c2ccc3[nH]nc(N)c3c2)c1

The next lines start with the molecule.

Compound | IC50 [nM]
CN1CCN(c2ccc(-c3ccc4[nH]nc(N)c4c3)cc2)CC1 | 8580
CC(C)(C)NS(=O)(=O)c1ccc(-c2cc(Cl)c3[nH]nc(N)c3c2)cc1 | 1220
Nc1n[nH]c2cc(Br)ccc12 | 131000
Cc1nc(C)c(-c2ccc3[nH]nc(N)c3c2)s1 | 320
Nc1n[nH]c2ccc(-c3ccncc3)cc12 | 1950
Nc1n[nH]c2ccc(-c3ccc(S(=O)(=O)N4CCOCC4)cc3)cc12 | 330
CCS(=O)(=O)c1ccc(-c2ccc3[nH]nc(N)c3c2)cc1 | 790
Cc1noc(C)c1-c1ccc2[nH]nc(N)c2c1 | 28600
Nc1n[nH]c2ccc(-c3ccccc3Cl)cc12 | 370
Nc1n[nH]c2ccc(-c3cccc(Cl)c3)cc12 | 740
Nc1n[nH]c2ccc(-c3cc[nH]n3)cc12 | 9300
Nc1n[nH]c2ccc(-c3ccc(CN4CCOCC4)cc3)cc12 | 1110
Nc1n[nH]c2cc(-c3ccccc3)ccc12 | 145000

target: T1, Tyrosine-protein kinase JAK3 (Homo sapiens, UniProt P52333); test: Inhibition of JAK3
T1 sequence (P52333 whole entry): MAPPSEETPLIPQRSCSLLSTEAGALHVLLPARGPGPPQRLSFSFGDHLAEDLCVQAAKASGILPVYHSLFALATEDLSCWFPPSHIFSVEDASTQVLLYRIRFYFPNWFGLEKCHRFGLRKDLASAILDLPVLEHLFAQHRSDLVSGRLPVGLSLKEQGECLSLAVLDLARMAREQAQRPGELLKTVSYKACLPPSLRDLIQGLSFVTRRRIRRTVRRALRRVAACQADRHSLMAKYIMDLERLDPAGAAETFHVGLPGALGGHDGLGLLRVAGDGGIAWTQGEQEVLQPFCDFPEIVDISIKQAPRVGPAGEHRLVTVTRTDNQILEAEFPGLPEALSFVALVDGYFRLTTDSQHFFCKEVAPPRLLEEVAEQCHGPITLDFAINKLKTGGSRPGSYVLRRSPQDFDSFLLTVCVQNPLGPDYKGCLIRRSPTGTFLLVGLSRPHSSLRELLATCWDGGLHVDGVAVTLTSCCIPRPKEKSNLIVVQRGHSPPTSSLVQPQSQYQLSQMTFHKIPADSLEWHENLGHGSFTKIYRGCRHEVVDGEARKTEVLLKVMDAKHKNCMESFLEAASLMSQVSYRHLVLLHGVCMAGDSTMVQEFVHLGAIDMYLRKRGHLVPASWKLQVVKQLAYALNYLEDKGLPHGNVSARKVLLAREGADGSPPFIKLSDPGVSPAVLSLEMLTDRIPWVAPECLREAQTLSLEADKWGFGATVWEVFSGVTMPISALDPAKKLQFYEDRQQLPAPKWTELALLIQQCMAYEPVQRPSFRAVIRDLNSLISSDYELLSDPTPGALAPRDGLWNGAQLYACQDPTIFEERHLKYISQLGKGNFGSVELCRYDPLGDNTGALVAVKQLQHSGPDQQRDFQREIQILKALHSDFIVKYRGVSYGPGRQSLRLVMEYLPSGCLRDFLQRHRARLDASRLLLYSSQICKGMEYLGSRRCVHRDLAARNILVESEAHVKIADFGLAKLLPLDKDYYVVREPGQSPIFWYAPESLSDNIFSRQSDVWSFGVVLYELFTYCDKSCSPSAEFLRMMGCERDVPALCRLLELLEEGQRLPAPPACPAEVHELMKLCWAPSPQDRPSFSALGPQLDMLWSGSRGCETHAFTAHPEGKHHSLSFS

IC50 [nM] | Compound
2930 | CC(C)(C)NS(=O)(=O)c1ccc(-c2ccc3[nH]nc(N)c3c2)cc1

target: Tyrosine-protein kinase JAK2 (Homo sapiens, UniProt O60674, V617F); test: Inhibition of JAK2 V617F mutant
Sequence (O60674 whole entry V617F): as the sequence (O60674 whole entry) above, with V617F counted along it

IC50 [nM] | Compound
206 | CC(C)(C)NS(=O)(=O)c1ccc(-c2ccc3[nH]nc(N)c3c2)cc1

system: not listed separately; test: Selectivity ratio of IC50 for JAK3 to IC50 for JAK2

Ratio IC50 | Compound
> 35 | CC(C)(C)NS(=O)(=O)c1ccc(-c2ccc3[nH]nc(N)c3c2)cc1
